Data set [1] can be described thus: Cytotoxicity assay (MTT). It counts as cell-based, human. The protocol:
(§1) Compounds 1−5 were dissolved as described in the previous section. The cytotoxicity assay was initially performed against the cell lines L929 (mouse fibroblasts), as well as KB 3.1 (human papillomavirus-related endocervical adenocarcinoma), as described previously. A detailed protocol, as well as sources of the cell lines, is given in the Supporting Information.
(§2) After incubating the cell lines with a serial dilution of the test compounds (final range: 37 to 0.6 × 10^−3 µg/mL) for five days, the cells were dyed using 3-(4,5-dimethyl-2-thiazolyl)-2,5-diphenyl-2H-tetrazolium bromide (MTT), which is only converted to its purple formazan derivative by living cells. Then, the intensity of the purple derivative in relation to cells without additive (set to 100% viability) for each concentration of a test compound was quantified. For this, the absorption at 595 nm was measured using a microplate reader to calculate the percentage of cell viability. From this, the half-maximum inhibitory concentration (IC50, in µM) was calculated.
If an inhibition of cell viability with an IC50 < 50 µM was observed, further cell lines were subjected to the test compounds: PC-3 (human prostate adenocarcinoma), SK-OV-3 (human ovary adenocarcinoma), MCF-7 (human breast adenocarcinoma), A431 (human squamous carcinoma) and A549 (human lung carcinoma).
(§3) Protocol: Cytotoxicity Assay
(§4) The ass ay w as co nducted i n 9 6-well flat-bottom mi crotiter plates using the parameters summarised i n Tabl e S 2 and as described in [S2].
(§5) Cell lines L929 and KB 3.1 were incubated at 37 °C under 10 % CO2 in Gibco™ DMEM medium (Thermo Fisher Scientific, Waltham, MA, USA) supplemented with 10 % FBS. A microtiter plate was filled with 120 µL of this suspension (50,000/mL) in each well.
(§6) Seperately, another microtiter plate was filled with 100 µL of growth medium in each well. Then, 50 µL of the test compound sol utions (1 mg/mL) were given to wells of the first column in two replicates (one compound per row). C ell s wi thout addi ti ves, Me O H, and MeOH: DMSO 9+1 were used as negative controls. Starting from the first column, 50 µL of the solutions were gradually transferred to the ne xt col umn, the conte nts thoroughl y mi xed, and 50 µ L transferred to the following column. This created a serial dilution of the test compounds r anging from 333 µg/mL to 1.9 ×10−3 µg/mL. The remai ni ng 50 µL after column twelve were discarded. From this microtiter plate, 60 µL of the sol utions from 111 µg/ mL to 1.9×10−3 µg/mL were given to the first plate containing 120 µL of the cel l suspens i ons (i.e. the hi ghest concentrati on 333 µg/mL was not used). T his resulted i n fi nal compound concent rati ons rangi ng from […]
(§7) After 5 days of incubation under the aforeme ntioned i ncubati on condi ti ons, the half maximum inhibitory concentrati ons (IC 50) were determined using a colorimetric tetrazolium dye MTT assay [S3].
(§8) For this, 20 µL of a 5 mg/mL solution of 3-( 4 ,5 -dimethyl-2-thi azo l yl)-2 ,5 -di phenyl -2H-tetrazolium bromide (MTT) w ere added to each well and incubated for two hours at 37 °C. Then, the microtiter plate was centrifuged (3,000 r p m, 5 mi n) and the supernat ant remo ved by ho l di ng the pl ate upsi de-do wn and gentle shaking. Afterwards, the wells were washed using 100 µL of phosph ate buffered saline (PBS).
(§9) The plate was again centrifuged and the supernatant removed as described before. Then, 100 µL of an isopropanol:HCl solution (1L i sopropanol+4 mL HCl 37 % w/v) were added to the wells. After i ncubati ng fo r 10 mi n at ambi ent te mperature, the a bso r pti o n of the well s at 595 nm was measured wi th an I nfi ni te ® 200 Pro microplate reader (TECAN, Männedorf, Schweiz).
(§10) The absorption values of the cells without additives were averaged and set to 100 % cell viability.
(§11) Then, t he me ans of absorption of the two compound replicates were set in relation to the blank media.
These percentage values were plotted a gainst the concentration range (37 µg/mL to 0.6×10 −3 µg/mL). […]

Data set [2] can be described thus: Cytotoxicity assay (MTT). It counts as cell-based. The protocol:
as §1, §2, §3, §4, §5, §6, §7, §8, §9, §10, §11
These percentage values were plotted a gainst the concentration range (37 µg/mL to 0.6×10 −3 µg/mL).
The IC50 val ue w as read from the plot ( i n µg/mL) and the uni ts conversed to µM.
If effects were observed wi th cell lines L929 and KB 3.1 (IC50 < 50 µM), the other cell lines were tested using the same protocol.
Table S2: Cytotoxicity assay experiment parameters cell line type No. growth medium […]

For another data set, the system named is Pseudomonas aeruginosa. As to the kind of experiment: MIC serial dilution assay. It counts as cell-based. The conditions noted are these: Pseudomonas aeruginosa PA14; overnight, 37 °C; reference gentamicin 0.1 mg/mL; read-out: Minimum Inhibitory Concentration (MIC). Here is the method: Compounds 1, 2, 4 and 5 were dissolved in MeOH (1 mg/mL) for the antimicrobial activity assay, while compound 3 was dissolved in MeOH: DMSO 9+1 (1 mg/mL). The solvents were also used as negative controls.
Minimum inhibitory concentrations (MIC) were determined in a serial dilution assay, as described previously; a detailed protocol can be found in the Supporting Information. The compounds (1 mg/mL) were diluted to a range of 66.7 to 0.52 µg/mL and incubated with the test organisms overnight. Inhibition of growth was visually evaluated the next day: the MIC is defined as the lowest concentration of the test compound where no growth of the test organism was observed. Various test organisms of fungal and bacterial origin were tested to cover a broad range of microorganisms. This selection is also being used as a standard test panel in our attempts to discover new anti-infectives, as it represents a broad spectrum of pathogens of clinical interest, as well as sensitive indicator strains (bacteria: Bacillus subtilis, Staphylococcus aureus, Micrococcus luteus, Chromobacterium violaceum, Escherichia coli and Pseudomonas aeruginosa; mycobacteria: Mycolicibacterium smegmatis and fungi: Candida albicans, Schizosaccharomyces pombe, Mucor hiemalis, Pichia anomala and Rhodotorula glutinis).
Protocol: Antimicrobial Activi ty Assay
The assay was conducted as a minimum inhi bitory concentration (MIC) assay in 96-well ro und-bottom mi crotiter pl ate s usi ng the p ar ameter s su mm ari zed i n T a bl e S 1 and as already described i n [S1].
Stocks of the test organi sms were generated by growing the organisms o ver ni ght i n 50 mL shaki ng fl asks fi ll ed wi th 25 mL of the growth medi um at 140 rpm (for media and temperatures see Table S1). If the organisms were well grown the ne xt day, which was checked by occurrence of an optical density (OD)>30 of the suspension (OD600 nm for bacteria, OD548 nm for fungi and M. smegma tis) , aliquots of these were stored i n 1.5 mL reaction tube s in a freezer at −80 °C for up to 12 mo nths . Upon use, aliquots were unth awed and the OD of the suspension measured and adjusted by diluting with the respective growth medi um. OD600 nm w as adj usted to 0.01 and OD548 nm to 0.1.
Subse que ntly, 150 µL o f the adjusted suspensions were added to all wells of a 96-wel l microtiter pl ate (one test organi sm per plate). In row A, additional 130 µL of suspensions plus 20 µL of the test compounds (1 mg/mL) and the controls (one compound/column) were added. MeOH as well as MeOH:DMSO 9+1 were used as negative controls, while different positive controls (refer ences) were used for the test organisms (see Tabl e S1). Then, starti ng from row A, 150 µ L of the suspension were transferred to the next row, the contents thoroughly mixed, and 150 µ L transferred to the following row.
The remaining 150 µ L after row H were discarded. […]
compounds, ranging from 66.7 µg/mL i n row A to 0.52 µg/mL i n row H.
The microtiter plates were then incubated overnight o n a microplate shaker at 800 rpm at 30 or 37 °C (see Table S1) and were visually evaluated the next day. The MIC is defined as the lowest concentration were no growth of the test organism was o bserved. A lower MIC thus corresponds to a higher antimicrobial activity of the test compound.
Table S1: MIC assay ex per i men t parameters test organism strain No. growth incubation positive control (reference) […]
Pseudomonas a erugi nosa PA14 MHB 1 37 gent amici n 0.1 mg/mL […]
Rhodotorula glutinis DSM10134 MYC 3 30 nyst ati n 1.0 mg/mL
1 MHB: Müller-Hinton Broth (SN X927.1, Ca r l Roth GmbH, Karlsruhe, Germany) 2 7H9+ADC: Middlebrook 7H9 Broth Base + Middlebrook ADC Growth Supplement (SN M0678+M0553, Merck, Darmstadt, Germany)
3 MYC: 1 % w/v, bacto peptone, 1% w/v yeast extract, 2 % w /v glycerol, pH 6.3 [S1] Helaly, S.E.; Ashrafi, S.; Teponno, R.B.; Bernecker, S.; Dababat, A.A.; Maier, W.; Stadler, M.
Nematicidal Cyclic Lipodepsipeptides and a Xanthocillin Derivative from a Phaeosphariaceous […]

In brackets after ≈: the same amount, converted by molar mass.

Take `C/C(=C\c1csc(C)n1)[C@@H]1C[C@@H]2O[C@]2(C)CCC[C@H](C)[C@H](O)[C@@H](C)C(=O)C(C)(C)[C@@H](O)CC(=O)O1` [epothilone B, reference compound]: the IC50 at 5 days in the data set “Cytotoxicity assay (MTT) [1]” (A431 human squamous AC) turned out to be 0.05 nM; in the data set “Cytotoxicity assay (MTT) [1]” (A549 human lung carcinoma) it was 0.08 nM; in the data set “Cytotoxicity assay (MTT) [1]” (MCF-7 human breast AC), 0.12 nM; in “Cytotoxicity assay (MTT) [1]” (PC-3 human prostate AC) it was 0.08 nM; in “Cytotoxicity assay (MTT) [1]” (SK-OV-3 human ovary AC), 0.34 nM; in “Cytotoxicity assay (MTT) [2]” (KB 3.1 human endocervical adenocarcinoma), 0.79 nM. The same compound gave a 50% inhibitory concentration (IC50) at 5 days in “Cytotoxicity assay (MTT) [2]” (L929 mouse fibroblasts) of 0.06 nM.

For the compound `CNC(C)C1CCC(N)C(OC2C(N)CC(N)C(OC3OCC(C)(O)C(NC)C3O)C2O)O1` (centres unmarked) [gentamicin, reference compound], the MIC with Pseudomonas aeruginosa came out at 0.4 µg/mL (≈ 0.838 µM).
